The record followed here is PMC12769565, “Design, synthesis and biological activity of glycoconjugated ADAMTS5 exosite inhibitors: applications in osteoarthritis and ovarian cancer models” (Scientific Reports, 2025).

This test relates to human OA cartilage explants. The test is described as follows: Aggrecan fragments released from human OA cartilage (anti-AGEG immunoblot). The format is cell-based. The conditions noted are these: 48 h, anti-AGEG neoepitope, read-out: inhibition of aggrecan degradation. The method, then: Samples were separated by SDS-PAGE under reducing conditions (5% β-mercaptoethanol) on BOLT, 4–12%, Bis-Tris Gels (Invitrogen) in MES Running Buffer (NuPAGE). Proteins were transferred onto a nitrocellulose membrane using Trans-Blot Turbo™ Transfer System (BioRad), at 25 V, 2.5 A for 30 min. Membranes were blocked with 3% BSA/PBS for 1 h at room temperature. Aggrecan fragments generated by ADAMTS cleavage at E^392-A^393[8] or E^1953-A^1954[68] were detected using mouse monoclonal anti-ARGSV antibody (BC3, Life Technologies, MA3-16888, 4 µg/ml) or polyclonal anti-AGEG neoepitope antibody (serum, 1:200 dilution)[12],[33], respectively, followed by the appropriate horseradish peroxidase (HRP)-conjugated secondary antibodies (polyclonal Goat Anti-Mouse P0447, 0.1 ng/µl and polyclonal Goat Anti-Rabbit, P0448, 0.03 ng/µl, both from Agilent Technologies LDA UK Ltd). All antibodies were diluted in 0.5% bovine serum albumin (BSA)/PBS. Washes between each step were carried out in triplicate, for 15 min each, with PBS-Tween (0.1%). Following addition of the chemiluminescent HRP substrate (Millipore, WBKL30500) membranes were imaged using Bio-Rad Chemidoc Touch Imaging System. Analysis was carried out using BioRad ImageLab software (version 5.2.1) using sequential exposures to avoid saturation artifacts. Figures for unprocessed blots are included in Supplementary information Fig. S4 and Fig. S5 with highlighted regions (in red boxes) corresponding to the data reported in the main manuscript figures.
Human OA cartilage was obtained from Clatterbridge Hospital, Wirral, UK, following total knee arthroplasty procedures with informed patient consent in full compliance with national and institutional ethical requirements, the United Kingdom Human Tissue Act, and the Declaration of Helsinki (REC 18/WA/0344). […]
Explants were incubated in 0.2 ml of fresh DMEM containing compound 2 (10 or 100 µM) or 4b (10 µM) for 48 h. […] Proteins were precipitated using ice-cold acetone, dissolved in the SDS-sampling buffer and then analyzed by immunoblot using anti-AGEG aggrecan neoepitope antibody as before.
(Immunoblotting shows a protein as a band on a membrane.)

For `CCC(C)N(Cc1cn(CCCO[C@@H]2O[C@H](CO)[C@@H](O[C@@H]3O[C@H](CO)[C@H](O)[C@H](O)[C@H]3O)[C@H](O)[C@H]2NC(C)=O)nn1)S(=O)(=O)c1ccc(-c2ccccc2)cc1` (stereo partly drawn) [compound 2, N-((2R,3R,4R,5 S,6R)-2-(3-(4-((N-(sec-butyl)-[1,1’-biphenyl]-4-sulfonamido)methyl)-1H-1,2,3-triazol-1-yl)propoxy)-4-hydroxy-6-(hydroxymethyl)-5-(((2 S,3R,4 S,5R,6R)-3,4,5-trihydroxy-6-(hydroxymethyl)tetrahydro-2 H-pyran-2-yl)oxy)tetrahydro-2 H-pyran-3-yl)acetamide], where the note is “10 µM”, the inhibition – broadly, the drop in the measured response relative to a control, in per cent – at 10 µM stood at 63%. Also, the inhibition at 100 µM (100 µM) worked out at 85%.
